These results are taken from patent publication US20240067660A1, “MACROCYCLIC SPIROCYCLE DERIVATIVES AS MCL-1 INHIBITORS” (Janssen Pharmaceutica NV, priority 2019, published 2024).

The test relates to MOLP8 cells. Briefly: MOLP8 CellEvent Caspase-3/7 Green IncuCyte live-cell apoptosis assay. Format: cell-based, human. As for the experimental part:
MCL-1 is a regulator of apoptosis and is highly over-expressed in tumor cells that escape cell death. The assay evaluates the cellular potency of small-molecule compounds targeting regulators of the apoptosis pathway, primarily MCL-1, Bfl-1, Bcl-2, and other proteins of the Bcl-2 family. Protein-protein inhibitors disrupting the interaction of anti-apoptotic regulators with BH3-domain proteins initiate apoptosis.
Activation of the apoptotic pathway was measured using the CellEvent™ Caspase-3/7 Green ReadyProbes™ Reagent (Thermo Fisher C10423, C10723). This assay produces a green fluorescent stain in cells that enter the apoptosis pathway. CellEvent® Caspase-3/7 Green reagent is a four amino acid peptide (DEVD) conjugated to a nucleic acid-binding dye that is non-fluorescent when not bound to DNA. The CellEvent® Caspase-3/7 Green reagent is intrinsically non-fluorescent, as the DEVD peptide inhibits binding of the dye to DNA. Upon activation of caspase-3/7 in apoptotic cells, the DEVD peptide is cleaved and the free dye can bind DNA, generating a bright green fluorescence. The activation of Caspase-3 and Caspase-7 is downstream of inhibition of MCL-1 or other apoptosis inhibiting proteins in cell lines that are dependent on them.
The live-cell readout on the IncuCyte permits tracking over time of the Caspase activation. […] The IncuCyte readout also allows one to normalize for cell number, as the suspension cells are hard to distribute evenly.
Signals were measured every 2 h for a duration of 22 h. The ratio of the Caspase mask to the Confluence mask, per image, as raw data, was calculated and the kinetic trace for every well was exported to Genedata Screener for analysis.
In Genedata Screener values for 6 h, 12 h, and 22 h from the kinetic traces were extracted. The values were normalized against negative controls (untreated cells). A standard dose-response analysis was performed on the normalized data.
The following data was reported at each of the following three aforementioned time points: (a) The dose-response curve, (b) The qAC50 and qAC50 Mode, and (c) Max Activity.
Cells were maintained in culture medium containing 10% Heat Inactivated (HI) FBS, 2 mM L-Glutamine and 50 μg/mL Gentamycin phenol red free RPMI-1640. Cells were split at 0.4 million/mL twice a week.
On Day 1, plates containing individual wells with test compounds at 10 mM concentration, 150 nL per well. The final concentrations range from […] compound (and no compound control) and compounds were thawed at room temperature for 1 hour. 25 μl of prewarmed medium was added into each well by multidrop (column 1, 3-22, 24), followed by addition of DMSO control (0.6% DMSO) in column 2. The plate was sealed using Breathe-Easy® sealing membrane and shaken for 30 min at room temperature to dissolve the test compound(s) in medium. The plate was then kept in the incubator for 1 hour at 37° C., 5% CO2.
MOLP8 cells in medium at […] (20000/50 μl final in assay) were prepared with CellEvent™ Caspase-3/7 Green Detection Reagent at 4 μM (2 μM final in assay). Once prepared, the cells were added to the test compound plate in an amount of 20000 and the plate was immediately placed in the IncuCyte and imaging started using following settings: 10× objective, 2 s exposure time in green channel, interval of 2 h, acquisition stopped after 22 h.
For analysis in IncuCyte, a Basic Analysis protocol was defined to calculate the “confluence” and “caspase” areas from the “Phase” and “green” images, respectively, as follows: (a) Confluence: Segmentation Adjustment 1, Hole Fill 0, Adjust Size −2, No filters (b) Caspase: Top-Hat segmentation, Radius 10, Threshold 0.3 GCU, Edge Split On with sensitivity 0, Hole Fill 0, Adjust Size 1, and filter on a minimum Area of 20 μm^2. The analyzer is trained on a sufficient number of positive and negative control wells, as well as compound treated wells, verifying that the “confluence” layer detects both live and dead (condensed) cells. […]

[1] abbreviates: Homo sapiens, MOLP-8, 6 h, 6 h, read-out: MOLP8 Caspase 3/7 AC50 at 6 h.
The mark [2] stands for this setting: Homo sapiens, MOLP-8, 12 h, 12 h, read-out: MOLP8 Caspase 3/7 AC50 at 12 h.
The mark [3] stands for this setting: Homo sapiens, MOLP-8, 22 h, 22 h, read-out: MOLP8 Caspase 3/7 AC50 at 22 h.

Read-outs that look alike come from different tables or passages of the source.

Take `COCC1/C=C/C[C@H](C)[C@@H](C)S(=O)(=O)NC(=O)c2ccc3c(c2)N(C[C@@H]2CCCN12)C[C@@]1(CCCc2cc(Cl)ccc21)CO3` (single isomer, unassigned) [Compound 8]: the AC50 runs as follows: under setting [1], 2.39 µM; under setting [2], 2.49 µM; under setting [3], 2.84 µM.
The like results for `C[C@@H]1[C@@H](C)C/C=C/C(CO)N2CC[C@H]2CN2C[C@@]3(CCCc4cc(Cl)ccc43)COc3ccc(cc32)C(=O)NS1(=O)=O` (single isomer, unassigned) [Compound 10] were, in that order, 3.07 µM, 3.24 µM and 3.43 µM.
The like results for `COC[C@H]1/C=C/C[C@@H](C)[C@@H](C)S(=O)(=O)NC(=O)c2ccc3c(c2)N(C[C@@H]2CCN21)C[C@@]1(CCCc2cc(Cl)ccc21)CO3` [Compound 4] were, in that order, roughly 1.31 µM, 1.2 µM and roughly 1.38 µM.
On to `COC[C@@H]1/C=C/C[C@@H](C)[C@@H](C)S(=O)(=O)NC(=O)c2ccc3c(c2)N(C[C@@H]2CCN21)C[C@@]1(CCCc2cc(Cl)ccc21)CO3` [Compound 7], for which the AC50 was 2.16 µM under setting [1], 1.72 µM under setting [2] and 1.9 µM under setting [3].
As to `C[C@@H]1[C@@H](C)C/C=C(\F)[C@H](CO)N2CC[C@H]2CN2C[C@@]3(CCCc4cc(Cl)ccc43)COc3ccc(cc32)C(=O)NS1(=O)=O` [Compound 9], the AC50 runs as follows: under setting [1], 0.4 µM; under setting [2], 0.4 µM; under setting [3], 0.4 µM.
Consider `C[C@@H]1[C@@H](C)C/C=C(\F)[C@H](COc2ccccn2)N2CC[C@H]2CN2C[C@@]3(CCCc4cc(Cl)ccc43)COc3ccc(cc32)C(=O)NS1(=O)=O` [Compound 11], for which the AC50 under setting [1] was determined as 2.38 µM, the AC50 under setting [2] is 2.32 µM and the AC50 under setting [3] came to 2.52 µM.
On to `C[C@@H]1[C@@H](C)C/C=C(\F)[C@H](COc2ccccn2)N2CC[C@@H]2CN2C[C@@]3(CCCc4cc(Cl)ccc43)COc3ccc(cc32)C(=O)NS1(=O)=O` [Compound 12], for which the AC50 amounted to 1.22 µM (6 h, read-out: MOLP8 Caspase 3/7 AC50 at 6 h); 1.12 µM (12 h, read-out: MOLP8 Caspase 3/7 AC50 at 12 h); 1.33 µM (22 h, read-out: MOLP8 Caspase 3/7 AC50 at 22 h).
Consider `COC[C@H]1/C(F)=C/C[C@H](C)[C@@H](C)S(=O)(=O)NC(=O)c2ccc3c(c2)N(C[C@@H]2CCN21)C[C@@]1(CCCc2cc(Cl)ccc21)CO3` [Compound 13], for which the AC50 under setting [1] is 0.52 µM, the AC50 under setting [2] amounted to 0.53 µM and the AC50 under setting [3] came to 0.56 µM.
As to `CC(C)COC[C@H]1/C(F)=C/C[C@H](C)[C@@H](C)S(=O)(=O)NC(=O)c2ccc3c(c2)N(C[C@@H]2CCN21)C[C@@]1(CCCc2cc(Cl)ccc21)CO3` [Compound 15], the AC50 under setting [1] amounted to 2.43 µM, the AC50 under setting [2] was found to be 2.4 µM and the AC50 under setting [3] was found to be 2.42 µM.
The like results for `CCOC[C@H]1/C(F)=C/C[C@H](C)[C@@H](C)S(=O)(=O)NC(=O)c2ccc3c(c2)N(C[C@@H]2CCN21)C[C@@]1(CCCc2cc(Cl)ccc21)CO3` [Compound 16] were, in that order, 0.45 µM, 0.45 µM and 0.48 µM.
Turning to `C[C@@H]1[C@@H](C)C/C=C(\F)[C@H](COCC(=O)O)N2CC[C@H]2CN2C[C@@]3(CCCc4cc(Cl)ccc43)COc3ccc(cc32)C(=O)NS1(=O)=O` [Compound 17], the AC50 is 11.1 µM under setting [1], 10 µM under setting [2] and 9.61 µM under setting [3].
The corresponding values for `C[C@@H]1[C@@H](C)C/C=C(\F)[C@H](COCC(=O)N2CCOCC2)N2CC[C@H]2CN2C[C@@]3(CCCc4cc(Cl)ccc43)COc3ccc(cc32)C(=O)NS1(=O)=O` [Compound 18] are 0.66 µM, 0.57 µM and 0.6 µM.
The corresponding values for `C[C@@H]1[C@@H](C)C/C=C(\F)[C@H](COCC(=O)N2CC(F)(F)C2)N2CC[C@H]2CN2C[C@@]3(CCCc4cc(Cl)ccc43)COc3ccc(cc32)C(=O)NS1(=O)=O` [Compound 19] are 0.39 µM, 0.4 µM and 0.43 µM.
For `COCCCOC[C@H]1/C(F)=C/C[C@H](C)[C@@H](C)S(=O)(=O)NC(=O)c2ccc3c(c2)N(C[C@@H]2CCN21)C[C@@]1(CCCc2cc(Cl)ccc21)CO3` [Compound 22], the AC50 reads like this: under setting [1], 0.55 µM; under setting [2], 0.57 µM; under setting [3], 0.62 µM.
The corresponding values for `C[C@@H]1[C@@H](C)C/C=C(\F)[C@H](COCCC2CCOCC2)N2CC[C@H]2CN2C[C@@]3(CCCc4cc(Cl)ccc43)COc3ccc(cc32)C(=O)NS1(=O)=O` [Compound 23] are 1.11 µM, 1.04 µM and 1.15 µM.
With `Cc1nc(COC[C@H]2/C(F)=C/C[C@H](C)[C@@H](C)S(=O)(=O)NC(=O)c3ccc4c(c3)N(C[C@@H]3CCN32)C[C@@]2(CCCc3cc(Cl)ccc32)CO4)no1` [Compound 24], the AC50 is, setting by setting: under setting [1], 0.39 µM; under setting [2], 0.41 µM; under setting [3], 0.4 µM.
Consider `C[C@@H]1[C@@H](C)C/C=C(\F)[C@H](COCCCN2CCOCC2)N2CC[C@H]2CN2C[C@@]3(CCCc4cc(Cl)ccc43)COc3ccc(cc32)C(=O)NS1(=O)=O` [Compound 25], for which the AC50 is, setting by setting: under setting [1], 0.36 µM; under setting [2], 0.36 µM; under setting [3], 0.36 µM.
`C[C@@H]1[C@@H](C)C/C=C(\F)[C@H](COCC2CCC2)N2CC[C@H]2CN2C[C@@]3(CCCc4cc(Cl)ccc43)COc3ccc(cc32)C(=O)NS1(=O)=O` [Compound 26]: the AC50 came to 3.54 µM under setting [1], 3.57 µM under setting [2] and 3.06 µM under setting [3].
On to `C[C@@H]1[C@@H](C)C/C=C(\F)[C@H](CF)N2CC[C@H]2CN2C[C@@]3(CCCc4cc(Cl)ccc43)COc3ccc(cc32)C(=O)NS1(=O)=O` [Compound 31], for which the AC50 is 1.09 µM under setting [1], 0.9 µM under setting [2] and 0.94 µM under setting [3].
